Test [1] deals with HCV GT1a replicon cells. Nature of the test: HCV replicon assay, GT1a replicon cells. The test is classed as cell-based. Particulars: Hepatitis C virus, 72 hours incubation, luciferase reporter or NEO gene qPCR readout, read-out: EC50 against HCV 1a genotype. How it is done: (§1) An HCV Replicon assay was utilized in the present disclosure, and was prepared, developed and validated as described in Science, 1999, 285 (5424), 110-3 and J. Virol., 2003, 77 (5), 3007-19.
(§2) HCV GT1a, GT1b and GT2a replicon cells were used to test the currently described compound series as well as wild-type cells HCV 1b and resistant cells Y^93H, L31F, P32L and I302V. GT1a and CT1b are HCV Replicon System which is transfected HCV 1a, 1b genotype respectively.
(§3) 1. Testing EC50 of the Compounds by Luciferase Assay
(§4) The GT1b cells and GT1a cells were seeded into 96-well plates (8,000 cells in 125 μl/well) respectively; each compound was diluted to desired concentration using 5-fold serial dilutions protocol, 10 dose in duplicate, and added to wells with POD™ 810 Plate Assembler. The final concentration of DMSO was 0.5%; the plates were incubated in a CO2 incubator for 72 hours; after that, 40 μl of Luciferase assay substrate (Promega Bright-Glo) was added to each well, and detected by a chemiluminescence detection system (Topcount Microplate Scintillation and Luminescence Counter) 5 minutes later; data analysis.
(§5) 2. Testing EC50 of the Compounds by Detecting Antibiotic G418 Resistance Gene NEO Gene
(§6) The GT1b cells and GT1a cells were seeded into 96-well plates (8,000 cells in 125 μl/well) respectively; each compound was diluted to desired concentration using 5-fold serial dilutions protocol, 10 dose in duplicate, and added to wells with POD™ 810 Plate Assembler., the final concentration of DMSO was 0.5%; the cells were incubated in a CO2 incubator for 72 hours; quantitative PCR. • Sample preparation: the supernatant was removed, 100 μl of FCW buffer solution was added to each well, washed carefully and discarded the solution; 50 μl of lysate FCP was added to each well, the cells was lysed as PCR template and diluted with DEPC water. • Quantitative PCR: preparation of reaction mixture according to PCR system; the reaction mixture was dispensed into a 384-well PCR reaction plate (specially for quantitative); and a standard template which was diluted in proportion was distributed into the plate; and the sample template was distributed into the plate; then the 384-well plate was sealed with closure plate membrane; the […] PCR machine was operated by procedures; data analysis.
(§7) 3. Data Processing: The EC50 Values of Compounds were Analyzed by GraphPad Prism Software.
Background: In antiviral work, replicon cells carry a viral genome segment that copies itself.

Test [2] has as its system HCV GT1b replicon cells. Put plainly: HCV replicon assay, GT1b replicon cells. The class given is cell-based. Particulars: Hepatitis C virus, 72 hours incubation, luciferase reporter or NEO gene qPCR readout, read-out: EC50 against HCV 1b genotype. Here is the method: as §1, §2, §3, §4, §5, §6, §7

By EC50 is commonly meant the concentration that produces a half-maximal response.

Turning to `COC(=O)N[C@H](C(=O)N1CCC[C@H]1c1nc2ccc(-c3ccc(-c4ccc(-c5cnc([C@@H]6C7CCC(C7)N6C(=O)[C@@H](NC(=O)OC)C(C)C)[nH]5)cc4)c4c3C3CCC4C3)cc2[nH]1)C(C)C` (stereo partly drawn) [Example 1], the EC50 in test [1] stood at 0.029 nM; in test [2], 0.008 nM.
For `COC(=O)N[C@H](C(=O)N1CCC[C@H]1c1nc2ccc(-c3ccc(-c4ccc(-c5cnc([C@@H]6CC7CC7N6C(=O)[C@@H](NC(=O)OC)C(C)C)[nH]5)cc4)c4c3C3CCC4C3)cc2[nH]1)C(C)C` (stereo partly drawn) [Example 3], the EC50 was determined as 0.053 nM in test [1] and 0.013 nM in test [2].
Take `COC(=O)N[C@H](C(=O)N1CCC[C@H]1c1ncc(-c2ccc(-c3ccc(-c4cnc([C@@H]5CCCN5C(=O)[C@@H](NC(=O)OC)C(C)C)[nH]4)c4c3C3CCC4C3)c(F)c2)[nH]1)C(C)C` (stereo partly drawn) [Example 4]: the EC50 in test [1] was 0.497 nM; in test [2], 0.007 nM.
In the case of `COC(=O)N[C@H](C(=O)N1CCC[C@H]1c1ncc(-c2ccc(-c3ccc(-c4ccc(-c5cnc([C@@H]6CCCN6C(=O)[C@@H](NC(=O)OC)C(C)C)[nH]5)cc4)c4c3C3CCC4C3)cc2)[nH]1)C(C)C` [Example 5], the 50% effective concentration (EC50) in test [1] came out at 1.05 nM; in test [2], 0.098 nM.
For the compound `COC(=O)N[C@H](C(=O)N1CCC[C@H]1c1nc2cc(-c3ccc(-c4ccc5[nH]c([C@@H]6CCCN6C(=O)[C@@H](NC(=O)OC)C(C)C)nc5c4)c4c3C3CCC4C3)ccc2[nH]1)C(C)C` [Example 6], the EC50 in test [1] was 0.047 nM; in test [2], 0.006 nM.
On the same counts, the results for `COC(=O)N[C@@H](C)C(=O)N1CCC[C@H]1c1ncc(-c2ccc(-c3ccc(-c4ccc5[nH]c([C@@H]6CCCN6C(=O)[C@H](C)NC(=O)OC)nc5c4)c4c3C3CCC4C3)cc2)[nH]1` (stereo partly drawn) [Example 7] are 0.094 nM and 0.076 nM.
On the same counts, the results for `COC(=O)N[C@H](C(=O)N1CCC[C@H]1c1nc2cc(-c3ccc(-c4ccc(-c5cnc([C@H]6CCCN6C(=O)[C@@H](NC(=O)OC)C(C)C)[nH]5)cc4)c4c3C3CCC4C3)ccc2[nH]1)c1ccccc1` (stereo partly drawn) [Example 8] are 0.033 nM and 0.019 nM.
The corresponding values for `CCC(C)[C@H](NC(=O)OC)C(=O)N1CCC[C@H]1c1nc2cc(-c3ccc(-c4ccc(-c5cnc([C@@H]6CCCN6C(=O)[C@@H](NC(=O)OC)C(C)C)[nH]5)cc4)c4c3C3CCC4C3)ccc2[nH]1` (stereo partly drawn) [Example 9] are 0.104 nM and 0.009 nM.
Take `COC(=O)N[C@H](C(=O)N1CCC[C@H]1c1ncc(-c2ccc(-c3ccc(-c4cnc([C@@H]5CCCN5C(=O)[C@@H](NC(=O)OC)C5CCCCC5)[nH]4)c4c3C3CCC4C3)cc2)[nH]1)C1CCCCC1` (stereo partly drawn) [Example 10]: the EC50 was 0.374 nM in test [1] and 0.013 nM in test [2].
On the same counts, the results for `COC(=O)N[C@H](C(=O)N1CCC[C@H]1c1ncc(-c2ccc(-c3nnc(-c4ccc5[nH]c([C@@H]6CCCN6C(=O)[C@@H](NC(=O)OC)C(C)C)nc5c4)c4c3C3CCC4CC3)cc2)[nH]1)C(C)C` [Example 11] are 0.049 nM and 0.023 nM.
The corresponding values for `COC(=O)N[C@H](C(=O)N1CCC[C@H]1c1ncc(-c2ccc(-c3nnc(-c4ccc5[nH]c([C@@H]6CCCN6C(=O)[C@@H](NC(=O)OC)C(C)C)nc5c4)c4c3C3CCC4C3)cc2)[nH]1)C(C)C` (stereo partly drawn) [Example 12] are 0.658 nM and 0.373 nM.
On the same counts, the results for `COC(=O)N[C@H](C(=O)N1C[C@@H](F)CC1c1ncc(-c2ccc(-c3ccc(-c4cnc(C5C[C@H](F)CN5C(=O)[C@@H](NC(=O)OC)C(C)C)[nH]4)c4c3C3CCC4C3)cc2)[nH]1)C(C)C` (stereo partly drawn) [Example 13] are 0.53 nM and 0.034 nM.
For `COC(=O)N[C@H](C(=O)N1CC(F)(F)C[C@H]1c1ncc(-c2ccc(-c3ccc(-c4cnc([C@@H]5CC(F)(F)CN5C(=O)[C@@H](NC(=O)OC)C(C)C)[nH]4)c4c3C3CCC4C3)cc2)[nH]1)C(C)C` (stereo partly drawn) [Example 14], the EC50 in test [1] turned out to be 0.487 nM; in test [2] it was 0.006 nM.
On the same counts, the results for `COC(=O)N[C@H](C(=O)N1CCC[C@H]1C(=O)Nc1cccc(-c2ccc(-c3ccc(-c4cnc([C@@H]5CCCN5C(=O)[C@@H](NC(=O)OC)C(C)C)[nH]4)cc3)c3c2C2CCC3C2)c1)C(C)C` (stereo partly drawn) [Example 16] are 3.5 nM and 0.009 nM.
On the same counts, the results for `COC(=O)N[C@H](C(=O)N1CCC[C@H]1c1ncc(-c2ccc(-c3ccc(-c4ccc5nc([C@@H]6CCCN6C(=O)[C@@H](NC(=O)OC)C(C)C)[nH]c5c4)c4c3C3CCC4C3)cc2)[nH]1)C(C)C` (stereo partly drawn) [Example 17] are 0.767 nM and 0.007 nM.
On the same counts, the results for `COC(=O)N[C@H](C(=O)N1CCC[C@H]1c1ncc(-c2ccc(-c3ccc(-c4cnc([C@@H]5CCCN5C(=O)[C@@H](NC(=O)OC)C(C)C)[nH]4)c4c3C3CCC4C3)cc2)[nH]1)C(C)C` (stereo partly drawn) [Example 18] are 0.138 nM and 0.014 nM.
With `COC(=O)N[C@H](C(=O)N1CCCC1c1ncc(C#Cc2ccc(C#Cc3cnc([C@@H]4CCCN4C(=O)[C@@H](NC(=O)OC)C(C)C)[nH]3)c3c2C2CCC3C2)[nH]1)C(C)C` (stereo partly drawn) [Example 19], the concentration giving a half-maximal response (EC50) in test [1] was determined as 0.087 nM; in test [2], 0.026 nM.
In the case of `COC(=O)N[C@H](C(=O)N1C[C@@H](C)C[C@H]1c1ncc(-c2ccc(-c3ccc(-c4cnc([C@@H]5C[C@H](C)CN5C(=O)[C@@H](NC(=O)OC)C(C)C)[nH]4)c4c3C3CCC4C3)cc2)[nH]1)C(C)C` (stereo partly drawn) [Example 20], the figures for the EC50 in test [1] and in test [2] were under 0.001 nM and 0.045 nM, respectively.
On the same counts, the results for `COC(=O)N[C@H](C(=O)N1CCC[C@H]1c1ncc(-c2ccc(-c3ccc(-c4ccc5nc([C@@H]6CCCN6C(=O)[C@@H](NC(=O)OC)C(C)C)[nH]c5c4)c4c3C3CCC4CC3)cc2)[nH]1)C(C)C` [Example 21] are 0.093 nM and 0.013 nM.
On to `COC(=O)N[C@H](C(=O)N1CCC[C@H]1c1ncc(-c2ccc(-c3ccc(-c4cnc([C@@H]5CCCN5C(=O)[C@@H](NC(=O)OC)C(C)C)[nH]4)c4c3C3CCC4CC3)cc2)[nH]1)C(C)C` [Example 22], for which the EC50 in test [1] came out at 11.4 nM; in test [2], 0.004 nM.
`COC(=O)N[C@H](C(=O)N1CCC[C@H]1c1ncc(C#Cc2ccc(C#Cc3cnc([C@@H]4CCCN4C(=O)[C@@H](NC(=O)OC)C(C)C)[nH]3)c3c2C2CCC3N2C)[nH]1)C(C)C` [Example 24]: the EC50 is 0.453 nM in test [1] and 0.096 nM in test [2].
On the same counts, the results for `COC(=O)N[C@H](C(=O)N1CCC[C@H]1c1nc2ccc(-c3ccc(-c4ccc5nc([C@@H]6CCCN6C(=O)[C@@H](NC(=O)OC)C(C)C)[nH]c5c4)c4c3C3CCC4N3C)cc2[nH]1)C(C)C` [Example 25] are 0.083 nM and 0.032 nM.
Consider `COC(=O)N[C@H](C(=O)N1CCC[C@H]1c1ncc(-c2ccc(-c3ccc(-c4cnc([C@@H]5CCCN5C(=O)[C@@H](NC(=O)OC)C(C)C)[nH]4)c4c3C3CCC4N3C)cc2)[nH]1)C(C)C` (stereo partly drawn) [Example 26], for which the EC50 was 0.653 nM in test [1] and 0.077 nM in test [2].
The corresponding values for `CC[C@H](C)[C@H](NC(=O)OC)C(=O)N1CCC[C@H]1c1nc2ccc(-c3ccc(-c4ccc(-c5cnc([C@@H]6CCCN6C(=O)[C@@H](NC(=O)OC)C(C)C)[nH]5)cc4)c4c3C3CCC4N3C)cc2[nH]1` (stereo partly drawn) [Example 28] are 0.063 nM and 0.015 nM.

These data come from patent US9309231B2, “Bridged ring compounds as hepatitis C virus (HCV) inhibitors and pharmaceutical applications thereof” (SUNSHINE LAKE PHARMA CO., LTD, priority 2012, dated 2016).
